From patent publication US11364311B2, “Method of identifying ASD phenotype 1 patients” (Stalicla S.A., priority 2017, dated 2022)
Read-outs that look alike come from different tables or passages of the source.

Columns and labels:
[1] = test system: lymphoblastoid cell lines of ASD phenotype 1 patients; assay: Energy production (NADH) in Biolog Phenotype Mammalian MicroArrays, phenotype 1 cells; format: cell-based, human; conditions: cells exposed to the factor; Figure 1 (AUC) and Table 1
Text: The phenotype 1 cohort (Phi) selected far in vitro experiments was composed by 14 males and 1 female (ratio 14:1), with an age range of 2-17 years (average 7.7).
From all subjects, blood samples were collected and lymphoblastoid cell lines generated. Briefly, tubes containing anticoagulant citrate dextrose (ACD) were used to collect blood samples via venipuncture, in order to ensure that the blood cells remained metabolically active. The tubes were kept at room temperature and processed within 24 hours.
Cell lines were obtained by immortalization of lymphocytes from blood samples using Epstein-Barr virus.
Energy production of cells was measured using commercially available Phenotype Mammalian MicroArrays (PM-Ms, Biolog, Hayward, Calif., USA).
The compound in each well was designed to be used by the cells, either as the sole energy source or as the metabolic effector influencing the utilization of an energy source (α-D-glucose) added in the cell suspension. […] Before plating, cell viability and number were assessed utilizing a BioRad cell counter and a trypan blue dye. The concentration of live cells required for plating was 4×10^5 cells/mL, corresponding to 20,000 cells per well in a volume of 50 μL. […] Cells were incubated for 48 h at 37° C. in 5% CO2, using the modified Biolog IF-M1 medium.
The Biolog IF-M1 medium was modified for plates PM-M1 to M4 by adding the following to 100 mL of Biolog IF-M1: 1.1 mL of 100× penicillin/streptomycin solution, 0.18 mL of 200 mM glutamine (final concentration 0.3 mM), and 5.3 mL of Fetal Bovine Serum (FBS, final concentration 5%). For plates PM-M5 to M8, 5.5 mM α-D-glucose will be added in place of FBS.
During the 48-hour incubation, the only energy source the cells had was the chemical in the well. After this first incubation, Biolog Redox Dye Mix MB was added (10 μL/well) and the plates were incubated under the same conditions for an additional 24 hours. As the cells metabolized the energy source, tetrazolium dye in the media was reduced, producing a purple color according to the amount of NADH generated.
For the last 24 hours of the experiment, the plates were incubated in the Omnilog system, which collects optical density readings every 15 minutes, generating 96 data-points for each well. The system also elaborated the kinetic curve for the metabolic reaction in each well and extrapolated parameters such as slope, highest point, endpoint, area under the curve (AUC), and lag.
At the end of the 24-hour incubation, the plates were analyzed utilizing a microplate reader with readings at 590 and 750 nm. The first value (A590) indicated the highest absorbance peak of the redox dye and the second value (A750) gave a measure of the background noise. The relative absorbance (A590-750) was calculated per well.

humans = conditions: cited from earlier work
ASD phenotype 2 patients = conditions: for Clinical significance (CGI-I): after 3 days of sulforaphane administration; for ADI-R-RI S score / ADI-R-C S score / ADI-R-SI S score: day 3 of challenge test, given as broccoli sprout extract as in example 3; for ADI-R-SI S score: B score 16
Protocol: The effects of sulforaphane containing Broccoli sprout extract was observed and quantified in 7 individuals suffering from ASD and previously classified as either phenotype 1 or phenotype 2 patients.
We describe a procedure consisting of an evaluation of patients with ASD prior and after administration of broccoli sprout extract. The extract was prepared from selected broccoli seeds known to have high yield of sulforaphane which were surface-disinfected and grown (sprouted) for 3 days in a commercial sprouting facility under controlled light and moisture conditions. A boiling water extract was prepared, filtered, cooled, and treated with the enzyme myrosinase (from daikon sprouts) to convert precursor glucosinolates to isothiocyanates. Behavioral evaluation of patients was performed prior, during and after administration of sulforaphane-containing broccoli sprout extract. Baseline evaluation of patients was performed using standard clinical endpoints (ADI-R subscales ADI-SI, ADI-C and ADI-RI).
Challenge regimen consisted of the administration of a Broccoli Sprout Extract dose corresponding to a total daily dosage of 4 μmol/kg of sulforaphane, administered in 3 doses over the course of the day.
The assessment of baseline scores and post challenge test scores was conducted by two experienced clinicians with extensive experience in conducting ASD clinical assessments, both of which separately rated the patients. In case of diverging scores in test subscales at baseline or after administration of the challenge test, the lowest severity score was retained. Assessment of clinical endpoints was performed at day 3 of administration of challenge test. Behavioral Outcome Measures: (primary efficacy endpoints): ABC, SRS; CGI-S, CGI-I and ADI-R (ADI-SI, ADI-C, ADI-RI).

[2] = Example 4 Patient 1 (phenotype 2)
[3] = Example 4 Patient 2 (phenotype 2)

IL-6: Th1 cytokine
production of NADH in ASD phenotype 1 cells compared to TDs and non-phenotype 1 cells [1]: significantly lower levels of NADH

C[S@@+]([O-])CCCCN=C=S [sulforaphane, 1-isothiocyanato-4R-(methylsulfinyl)butane]
tolerability of administration to humans (humans; humans): well tolerated
toxicity (humans; in vivo): low toxicity
Clinical significance (CGI-I) (ASD phenotype 2 patients; [2]): Very much improved
ADI-R-RI S score (ASD phenotype 2 patients; Example 4 Patient 1 (phenotype 2), B score 3): 3
ADI-R-C S score (ASD phenotype 2 patients; Example 4 Patient 1 (phenotype 2), B score 12): 10
ADI-R-SI S score (ASD phenotype 2 patients; [2]): 12
Clinical significance (CGI-I) (ASD phenotype 2 patients; [3]): Very much improved
ADI-R-RI S score (ASD phenotype 2 patients; Example 4 Patient 2 (phenotype 2), B score 5): 4
ADI-R-C S score (ASD phenotype 2 patients; Example 4 Patient 2 (phenotype 2), B score 11): 9
ADI-R-SI S score (ASD phenotype 2 patients; [3]): 14

IGF-I: insulin-like growth factor 1
production of NADH in ASD phenotype 1 cells compared to TDs and non-phenotype 1 cells [1]: no significant differences

FGF-1(aFGF): growth factor that selectively targets the PI3K-Akt-mTOR pathway
production of NADH in ASD phenotype 1 cells compared to TDs and non-phenotype 1 cells [1]: significantly reduced production of NADH

IL-1beta: Th1 cytokine
production of NADH in ASD phenotype 1 cells compared to TDs and non-phenotype 1 cells [1]: significantly lower levels of NADH

hGH(Somatotropin): growth factor that selectively targets the PI3K-Akt-mTOR pathway
production of NADH in ASD phenotype 1 cells compared to TDs and non-phenotype 1 cells [1]: significantly reduced production of NADH

PDGF-AB: platelet-derived growth factor AB
production of NADH in ASD phenotype 1 cells compared to TDs and non-phenotype 1 cells [1]: no significant differences
